The numbers were not newly measured in US10206404B2, “Disinfectant” (Saban Ventures Pty Limited, priority 2012, dated 2019), which cites them from elsewhere.

The conditions of this data set: unbuffered peroxyacetic acid, regardless of how it is produced.

For the molecule `CC(=O)OO` [peroxyacetic acid], the pH result is listed as “around 2.8”.
